PubChem BioAssay AID1963451 (Molecular Pharmacology Branch, DTP, NCI, 2024)
pIC50: −log10 of the molar value. Values joined by “and” are separate entries in the source; they are usually repeats but may differ in a detail not shown here. Identical values can stand only once.

Test system: 521955-158-R6-J3-PDC complex spheroid growth, % test/control
Assay: Anticancer human tumor 521955-158-R6-J3-PDC patient-derived pancreatic carcinoma cell line growth inhibition [Asc]
Details: for viability, T/C: stronger effect = lower value
Procedure, shortened: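 Tumor cells were grown as complex spheroids with human endothelial cells (HUVEC) and human mesenchymal stem cells as stroma. Agents were tested alone and in combination, in half-log steps down from the clinical Cmax, or from 10 microM where Cmax was unknown.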
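Also: spheroids exposed to compounds for 7 days.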
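For viability, T/C in this document: 100% = DMSO vehicle control wells.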

Cc1nc(N2CCC3(CC2)COC(C)C3N)c(CO)nc1Sc1ccnc(N)c1Cl (stereo unspecified)
viability, T/C (compound 0.00949 µM): 89.6% and 113% and 112% | viability, T/C (compound 0.03 µM): 90.4% and 106% and 101% | viability, T/C (compound 0.0949 µM): 83.9% and 93.1% and 97% | viability, T/C (compound 0.3 µM): 84.7% and 97.1% and 94.5% | viability, T/C (compound 0.949 µM): 72.8% and 94.4% and 71.6% | viability, T/C (compound 3 µM): 57.9% and 89.5% and 90.1% | pIC50 (curve of compound): < 5.52

Cc1c(S(C)(=O)=O)c(-c2cc(F)cc(N3CCN(c4ccc(NS(=O)(=O)c5ccc(NC(CCN6CCC(C(=O)OCCCP(=O)(O)O)CC6)CSc6ccccc6)c(S(=O)(=O)C(F)(F)F)c5)cc4)CC3)c2)c(-c2ccc(Cl)cc2)n1C(C)C (stereo unspecified)
viability, T/C (compound 0.0316 µM): 77.2% [middle of 7 runs] | viability, T/C (compound 0.1 µM): 71.5% [middle of 7 runs] | viability, T/C (compound 0.316 µM): 54% [middle of 7 runs] | viability, T/C (compound 1 µM): 37.2% [middle of 7 runs] | viability, T/C (compound 3.16 µM): 23.6% [middle of 7 runs] | viability, T/C (compound 10 µM): 18.2% [middle of 7 runs] | IC50 (compound alone, run of 11/07/2022): 412 nM [middle of 7 runs]

O=C(c1ccc(F)c(F)c1Nc1ccc(I)cc1F)N1CC(O)([C@@H]2CCCCN2)C1 + CNC(C)C(=O)NC1CN(S(=O)(=O)c2cccc(S(=O)(=O)N3CCC4CCC(C(=O)NC(c5ccccc5)c5ccccc5)N4C(=O)C(NC(=O)C(C)NC)C3)c2)CCC2CCC(C(=O)NC(c3ccccc3)c3ccccc3)N2C1=O
pIC50 (curve of first compound, second compound 0.00316 µM): 6.24 | pIC50 (curve of first compound, second compound 0.01 µM): 6.58 | pIC50 (curve of first compound, second compound 0.0316 µM): 6.54 | pIC50 (curve of first compound, second compound 0.1 µM): 6.30 | pIC50 (curve of first compound, second compound 0.316 µM): 6.68 | pIC50 (curve of first compound, second compound 1 µM): 6.86 | viability, T/C (second compound 0.00316 µM, first compound 0.00316 µM): 150% | viability, T/C (second compound 0.00316 µM, first compound 0.01 µM): 127% | viability, T/C (second compound 0.00316 µM, first compound 0.0316 µM): 120% | viability, T/C (second compound 0.00316 µM, first compound 0.1 µM): 105% | viability, T/C (second compound 0.00316 µM, first compound 0.316 µM): 60% | viability, T/C (second compound 0.00316 µM, first compound 1 µM): 36% | viability, T/C (second compound 0.01 µM, first compound 0.00316 µM): 87.4% | viability, T/C (second compound 0.01 µM, first compound 0.01 µM): 84.9% | viability, T/C (second compound 0.01 µM, first compound 0.0316 µM): 94.8% | viability, T/C (second compound 0.01 µM, first compound 0.1 µM): 74.9% | viability, T/C (second compound 0.01 µM, first compound 0.316 µM): 45.5% | viability, T/C (second compound 0.01 µM, first compound 1 µM): 30.7% | viability, T/C (second compound 0.0316 µM, first compound 0.00316 µM): 88.7% | viability, T/C (second compound 0.0316 µM, first compound 0.01 µM): 88.6% | viability, T/C (second compound 0.0316 µM, first compound 0.0316 µM): 90.1% | viability, T/C (second compound 0.0316 µM, first compound 0.1 µM): 72% | viability, T/C (second compound 0.0316 µM, first compound 0.316 µM): 49.2% | viability, T/C (second compound 0.0316 µM, first compound 1 µM): 31% | viability, T/C (second compound 0.1 µM, first compound 0.00316 µM): 117% | viability, T/C (second compound 0.1 µM, first compound 0.01 µM): 94.3% | viability, T/C (second compound 0.1 µM, first compound 0.0316 µM): 102% | viability, T/C (second compound 0.1 µM, first compound 0.1 µM): 83.8% | viability, T/C (second compound 0.1 µM, first compound 0.316 µM): 65.7% | viability, T/C (second compound 0.1 µM, first compound 1 µM): 28.7% | viability, T/C (second compound 0.316 µM, first compound 0.00316 µM): 72.6% | viability, T/C (second compound 0.316 µM, first compound 0.01 µM): 76.1% | viability, T/C (second compound 0.316 µM, first compound 0.0316 µM): 72.5% | viability, T/C (second compound 0.316 µM, first compound 0.1 µM): 61% | viability, T/C (second compound 0.316 µM, first compound 0.316 µM): 43.6% | viability, T/C (second compound 0.316 µM, first compound 1 µM): 29.9% | viability, T/C (second compound 1 µM, first compound 0.00316 µM): 78.9% | viability, T/C (second compound 1 µM, first compound 0.01 µM): 70.9% | viability, T/C (second compound 1 µM, first compound 0.0316 µM): 95.4% | viability, T/C (second compound 1 µM, first compound 0.1 µM): 56.5% | viability, T/C (second compound 1 µM, first compound 0.316 µM): 39.5% | viability, T/C (second compound 1 µM, first compound 1 µM): 27.4%
